# Where two headings read alike, the source gives them in different places.
# How the values were obtained:
# [1] = target: soluble human BACE1 catalytic domain (Homo sapiens (Human), UniProt P56817); test: BACE1 HTRF FRET Assay; format: biochemical; conditions: Ki calculated from IC50 using the Cheng-Prusoff equation; QSY7-APPswe-Eu substrate, pH 5.0
# Source text: A homogeneous time-resolved FRET assay can be used to determine IC50 values for inhibitors of the soluble human BACE1 catalytic domain. This assay monitors the increase of 620 nm fluorescence that resulted from BACE1 cleavage of an APPswedish APP^swe mutant peptide FRET substrate (QSY7-[…]-Europium-amide). This substrate contains an N-terminal QSY7 moiety that serves as a quencher of the C-terminal Europium fluorophore (620 nm Em). In the absence of enzyme activity, 620 nm fluorescence is low in the assay and increased linearly over 3 hours in the presence of uninhibited BACE1 enzyme Inhibition of BACE1 cleavage of the QSY7-APP^swe-Eu substrate by inhibitors is manifested as a suppression of 620 nm fluorescence.
# Reactions are initiated by addition of 10 μl of 600 nM QSY7-APP^swe-Eu substrate (200 nM final) to give a final reaction volume of 30 μl in a 384 well Nunc HTRF plate. The reactions are incubated at 30° C. for 1.5 hours. The 620 nm fluorescence is then read on a Rubystar HTRF plate reader (BMG Labtechnologies) using a 50 millisecond delay followed by a 400 millisecond acquisition time window Inhibitor IC50 values are derived from non-linear regression analysis of concentration response curves.
# [2] = target: purified human autoBACE-2 (Homo sapiens (Human), UniProt Q9Y5Z0); test: BACE-2 Assay (BACE-HTRF assay); format: biochemical
# Chain of purified human autoBACE-2 (Q9Y5Z0 63-473 limits assumed): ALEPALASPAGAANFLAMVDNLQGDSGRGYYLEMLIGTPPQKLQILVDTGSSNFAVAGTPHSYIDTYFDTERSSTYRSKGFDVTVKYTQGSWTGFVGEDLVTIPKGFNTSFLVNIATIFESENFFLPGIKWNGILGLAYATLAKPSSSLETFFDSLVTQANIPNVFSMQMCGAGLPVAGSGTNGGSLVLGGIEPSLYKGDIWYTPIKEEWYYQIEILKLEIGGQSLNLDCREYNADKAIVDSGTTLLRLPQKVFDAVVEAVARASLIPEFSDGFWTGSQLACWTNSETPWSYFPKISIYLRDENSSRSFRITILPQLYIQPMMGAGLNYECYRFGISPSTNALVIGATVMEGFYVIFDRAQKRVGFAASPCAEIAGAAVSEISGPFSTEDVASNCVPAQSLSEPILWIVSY
# Procedure: DMSO is present at 5% final concentration in the assay. Following laser excitation of sample wells at 320 nm, the fluorescence signal at 620 nm is collected for 400 ms following a 50 μs delay on a RUBYstar HTRF plate reader (BMG Labtechnologies). Raw RFU data is normalized to maximum (1.0 nM BACE/DMSO) and minimum (no enzyme/DMSO) RFU values. […] The Ki values are calculated from the IC50 using the Cheng-Prusoff equation.
# Chain of soluble human BACE1 catalytic domain (P56817 75-416): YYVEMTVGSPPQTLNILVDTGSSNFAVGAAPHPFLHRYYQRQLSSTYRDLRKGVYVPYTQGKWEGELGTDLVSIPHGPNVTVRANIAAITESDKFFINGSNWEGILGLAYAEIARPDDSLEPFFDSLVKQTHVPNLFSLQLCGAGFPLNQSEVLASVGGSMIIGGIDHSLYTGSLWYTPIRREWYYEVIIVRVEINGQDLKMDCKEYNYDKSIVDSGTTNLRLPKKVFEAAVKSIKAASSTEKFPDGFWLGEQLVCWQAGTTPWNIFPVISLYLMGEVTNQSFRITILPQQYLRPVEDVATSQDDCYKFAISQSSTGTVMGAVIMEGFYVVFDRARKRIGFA
Compound,Ki [1],Ki ([2]; BACE2 Ki (nM)),Ki ([2]; read-out: BACE2 Ki)
"CC1(C)C(=N)N[C@@]2(c3cc(NC(=O)c4ccc(F)cn4)ccc3F)COC(CF)[C@H]2S1(=O)=O (single isomer, unassigned) [Example 4a]",3 nM,1 nM,–
"CC1(C)C(=N)N[C@@]2(c3cc(NC(=O)c4ccc(F)cn4)ccc3F)COC(CF)[C@H]2S1(=O)=O (single isomer, unassigned) [Example 4b]",42 nM,18 nM,–
"COc1cnc(C(=O)Nc2ccc(F)c([C@]34COC(CF)[C@H]3S(=O)(=O)C(C)(C)C(=N)N4)c2)cn1 (single isomer, unassigned) [Example 4e]",–,11 nM,–
"COc1cnc(C(=O)Nc2ccc(F)c([C@]34COC(CF)[C@H]3S(=O)(=O)C(C)(C)C(=N)N4)c2)cn1 (single isomer, unassigned) [Example 4h]",–,476 nM,–
CC1(C)C(=N)N[C@@]2(c3cc(NC(=O)c4ccc(F)cn4)ccc3F)COC[C@H]2S1(=O)=O [Example 1a],3.5 nM,–,1 nM
CC1(C)C(=N)N[C@@]2(c3cc(NC(=O)c4ccc(C(F)(F)F)cn4)ccc3F)COC[C@H]2S1(=O)=O [Example 1aa],3 nM,–,8 nM
CC1(C)C(=N)N[C@@]2(c3cc(NC(=O)c4ccc(Cl)cn4)ccc3F)COC[C@H]2S1(=O)=O [Example 1b],2.5 nM,–,1 nM
COc1ccc(C(=O)Nc2ccc(F)c([C@]34COC[C@H]3S(=O)(=O)C(C)(C)C(=N)N4)c2)nc1 [Example 1c],5.8 nM,–,3 nM
COc1cnc(C(=O)Nc2ccc(F)c([C@]34COC[C@H]3S(=O)(=O)C(C)(C)C(=N)N4)c2)cn1 [Example 1d],6.2 nM,–,5 nM
Cn1ccc(C(=O)Nc2ccc(F)c([C@]34COC[C@H]3S(=O)(=O)C(C)(C)C(=N)N4)c2)n1 [Example 1e],13 nM,–,2 nM
Cc1cc(C(=O)Nc2ccc(F)c([C@]34COC[C@H]3S(=O)(=O)C(C)(C)C(=N)N4)c2)no1 [Example 1f],201 nM,–,24 nM
CC1(C)C(=N)N[C@@]2(c3cc(NC(=O)c4cn5ccsc5n4)ccc3F)COC[C@H]2S1(=O)=O [Example 1g],25 nM,–,3 nM
CC1(C)C(=N)N[C@@]2(c3cc(NC(=O)c4cnc(OCCF)cn4)ccc3F)COC[C@H]2S1(=O)=O [Example 1h],7 nM,–,18 nM
Cc1cc(C(=O)Nc2ccc(F)c([C@]34COC[C@H]3S(=O)(=O)C(C)(C)C(=N)N4)c2)on1 [Example 1i],559 nM,–,93 nM
Cn1cc(C(=O)Nc2ccc(F)c([C@]34COC[C@H]3S(=O)(=O)C(C)(C)C(=N)N4)c2)c(C(F)(F)F)n1 [Example 1j],1100 nM,–,309 nM
CC1(C)C(=N)N[C@@]2(c3cc(NC(=O)c4ncc(Cl)cc4F)ccc3F)COC[C@H]2S1(=O)=O [Example 1k],3 nM,–,1 nM
Cc1nc(C(=O)Nc2ccc(F)c([C@]34COC[C@H]3S(=O)(=O)C(C)(C)C(=N)N4)c2)c(C)o1 [Example 1l],6 nM,–,1 nM
COCC(=O)Nc1ccc(F)c([C@]23COC[C@H]2S(=O)(=O)C(C)(C)C(=N)N3)c1 [Example 1m],74 nM,–,5 nM

Compound,Ki [1],Ki ([2]; BACE2 Ki (nM)),Ki ([2]; read-out: BACE2 Ki)
CC1(C)C(=N)N[C@@]2(c3cc(NC(=O)C(F)F)ccc3F)COC[C@H]2S1(=O)=O [Example 1n],258 nM,–,33 nM
CO[C@@H](C)C(=O)Nc1ccc(F)c([C@]23COC[C@H]2S(=O)(=O)C(C)(C)C(=N)N3)c1 [Example 1o],213 nM,–,42 nM
CO[C@H](C)C(=O)Nc1ccc(F)c([C@]23COC[C@H]2S(=O)(=O)C(C)(C)C(=N)N3)c1 [Example 1p],151 nM,–,16 nM
CC1(C)C(=N)N[C@@]2(c3cc(NC(=O)c4cnc(C(F)(F)F)cn4)ccc3F)COC[C@H]2S1(=O)=O [Example 1q],13 nM,–,35 nM
CC1(C)C(=N)N[C@@]2(c3cc(NC(=O)c4ccc(C#N)cn4)ccc3F)COC[C@H]2S1(=O)=O [Example 1r],1 nM,–,1 nM
COc1cnc(C(=O)Nc2ccc(F)c([C@]34COC[C@H]3S(=O)(=O)C(C)(C)C(=N)N4)c2)c(C)c1 [Example 1s],4 nM,–,1 nM
COc1cnc(C(=O)Nc2ccc(F)c([C@]34COC[C@H]3S(=O)(=O)C(C)(C)C(=N)N4)c2)c(C)n1 [Example 1t],10 nM,–,6 nM
Cc1cc(C#N)cnc1C(=O)Nc1ccc(F)c([C@]23COC[C@H]2S(=O)(=O)C(C)(C)C(=N)N3)c1 [Example 1u],1 nM,–,1 nM
CC1(C)C(=N)N[C@@]2(c3cc(NC(=O)c4cnsn4)ccc3F)COC[C@H]2S1(=O)=O [Example 1v],8 nM,–,1 nM
C#CCOc1cnc(C(=O)Nc2ccc(F)c([C@]34COC[C@H]3S(=O)(=O)C(C)(C)C(=N)N4)c2)cn1 [Example 1w],1 nM,–,2 nM
CC1(C)C(=N)N[C@@]2(c3cc(NC(=O)c4ccc(OCF)cn4)ccc3F)COC[C@H]2S1(=O)=O [Example 1x],3 nM,–,2 nM
C#CCOc1ccc(C(=O)Nc2ccc(F)c([C@]34COC[C@H]3S(=O)(=O)C(C)(C)C(=N)N4)c2)nc1 [Example 1y],1 nM,–,7 nM
CC1(C)C(=N)N[C@@]2(c3cc(NC(=O)c4ccn(C(F)F)n4)ccc3F)COC[C@H]2S1(=O)=O [Example 1z],1 nM,–,1 nM
C[C@@]1(c2ccc(F)cc2)C(=N)N[C@@]2(c3cc(NC(=O)c4ccc(F)cn4)ccc3F)COC[C@H]2S1(=O)=O [Example 8a],84 nM,9 nM,–
C[C@]1(c2ccc(F)cc2)C(=N)N[C@@]2(c3cc(NC(=O)c4ccc(F)cn4)ccc3F)COC[C@H]2S1(=O)=O [Example 8b],1 nM,1 nM,–
C[C@@]1(C2CC2)C(=N)N[C@@]2(c3cc(NC(=O)c4ccc(F)cn4)ccc3F)COC[C@H]2S1(=O)=O [Example 13a],39 nM,–,6 nM
C[C@]1(C2CC2)C(=N)N[C@@]2(c3cc(NC(=O)c4ccc(F)cn4)ccc3F)COC[C@H]2S1(=O)=O [Example 13b],62 nM,–,11 nM

# Source: US9365589B2, “C5, C6 oxacyclic-fused thiazine dioxide compounds as BACE inhibitors, compositions, and their use” (Merck Sharp & Dohme Corp., priority 2012, dated 2016)
